# Measured values: paper PMC4694998, “Suppression of β-catenin/TCF transcriptional activity and colon tumor cell growth by dual inhibition of PDE5 and 10” (Oncotarget, 2015)
# What was measured:
# HCT116 colon tumor cells [1] = experiment: Cell proliferation assay (EdU incorporation, flow cytometry); assay type: cell-based, human; conditions: 24 hours treatment with 0.1 μmol/L
# Experimental: The antiproliferative activity of ADT-094 was determined by measuring EdU (5-ethynyl-2′-deoxyuridine) incorporation during DNA synthesis. Cells were plated at a density of 1.5 × 10^6 cells per 10 cm tissue culture dish and incubated overnight at 37°C. After growing the cells in serum-free media overnight, the cells were treated with ADT-094 or vehicle in medium supplemented with 10% serum for 6 hours. A final concentration of 10 μmol/L EdU was added to each dish and incubated for an additional 18 hours. Cells were harvested and analyzed using the Click-iT EdU Alexa Fluor 488 Proliferation Assay (Invitrogen) according to the manufacturer’s specifications. The percentage of proliferating cells was quantified using a BD FACSCalibur flow cytometer.
# HCT116 colon tumor cells [2] = experiment: Growth assay (Cell Titer Glo), HCT116; assay type: cell-based, human; conditions: Homo sapiens, HCT-116; 72 hours of treatment; read-out: HCT116 growth IC50
# Experimental: All cell lines were expanded upon delivery, and numerous aliquots of low passage cells were preserved in liquid N2. Cells were passaged no longer than 2 months. Tumor cell lines obtained from ATCC were characterized by STR profiling as performed by ATCC. The NCM460 line was characterized by INCELL as described previously (e.g. tumorigenicity testing). No additional re-authentication of the cell lines was performed except for experimental reasons (e.g. confirmation of cell doubling time, morphology, sensitivity to SS, PDE5/10 expression levels, etc). Cells were plated in 96-well microtiter plates at a density of 5,000 cells per well. For drug treatment, cells were treated with compound or vehicle, and incubated at 37°C for 72 hours. […] For siRNA assays, cells were transfected with siRNA under the same condition described above. The effect of treatment on cell growth was measured using the Cell Titer Glo Assay as specified by the manufacturer (Promega). The IC50 values were determined as described previously. All experiments were repeated a minimum of three times to determine the reproducibility of the results. All error bars represent standard error of the mean (SEM). Statistical analysis of differences between samples was performed using the Student’s t-test.
# purified ovine COX-1 = molecular target: T1, purified ovine COX-1 (Ovis aries, UniProt P05979); experiment: COX-1 colorimetric assay; assay type: biochemical
# T1 construct: purchased Cayman
# T1 sequence (P05979 25-600): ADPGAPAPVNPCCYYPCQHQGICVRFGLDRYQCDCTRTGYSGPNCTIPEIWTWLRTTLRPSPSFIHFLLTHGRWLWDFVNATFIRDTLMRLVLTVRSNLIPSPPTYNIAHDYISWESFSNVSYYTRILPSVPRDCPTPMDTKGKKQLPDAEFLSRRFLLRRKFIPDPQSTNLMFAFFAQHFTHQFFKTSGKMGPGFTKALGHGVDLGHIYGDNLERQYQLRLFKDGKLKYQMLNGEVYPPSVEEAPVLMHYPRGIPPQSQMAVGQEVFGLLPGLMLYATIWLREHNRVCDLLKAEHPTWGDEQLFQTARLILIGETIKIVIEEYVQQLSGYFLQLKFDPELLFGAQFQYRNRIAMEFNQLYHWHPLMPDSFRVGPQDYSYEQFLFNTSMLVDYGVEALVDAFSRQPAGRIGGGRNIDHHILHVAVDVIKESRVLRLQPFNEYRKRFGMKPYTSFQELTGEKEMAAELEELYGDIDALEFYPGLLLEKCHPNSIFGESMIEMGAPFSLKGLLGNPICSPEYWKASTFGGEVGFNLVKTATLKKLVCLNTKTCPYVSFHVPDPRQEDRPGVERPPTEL
# Experimental: COX-1 and COX-2 activities were measured using purified ovine COX-1 and COX-2 with colorimetric assay kits obtained from Cayman as previously reported. The activities of COX-1 and COX-2 were measured after the addition of arachidonic acid and incubation at 25°C for 5 min by absorbance at 590 nm as specified by the manufacturer.
# The IC50 values were determined as described previously. All experiments were repeated a minimum of three times to determine the reproducibility of the results. All error bars represent standard error of the mean (SEM). Statistical analysis of differences between samples was performed using the Student’s t-test. A P value of < 0.05 was considered statistically significant.
# [3] = test system: PKG activity (phospho-Ser239 VASP) in HCT116 colon tumor cells; experiment: Western blotting of VASP phosphorylation, HCT116; assay type: cell-based, human
# Experimental: Western blotting was performed as described previously. Cells were treated with ADT-094 or vehicle for 8 hours before cell lysates were collected.
# HCT116 colon tumor cells [4] = experiment: Apoptosis assay (Caspase 3/7 Glo), HCT116; assay type: cell-based, human; conditions: caspase-3 and -7, 6 hours of treatment
# Experimental: Cells were plated in 96-well microtiter plates at a density of 10,000 cells per well, and allowed to attach overnight. Cells were treated with ADT-094 or vehicle, and incubated at 37°C for 6 hours. All apoptosis assays were done in 5% serum using either tumor cells or normal colonocytes. The induction of apoptosis caused by treatment was determined using Caspase 3/7 Glo Assay (Promega), which is a luminescent assay that measures substrate cleavage by caspases-3 and -7. The assay was done according to manufacturer’s specifications.
compound,measurement,setting,value
"COc1ccc2c(c1)C(CC(=O)NCc1ccco1)=C(C)/C2=C/c1cc(OC)c(OC)c(OC)c1 [ADT-094, (Z)-N-(furan-2-ylmethyl)-2-(5-methoxy-2-methyl-1-(3,4,5-trimethoxybenzylidene)-1H-inden-3-yl) acetamide]",proliferation (EdU incorporation),HCT116 colon tumor cells [1],inhibited the proliferation
same,IC50,HCT116 colon tumor cells [2],0.1 µM
same,IC50,purified ovine COX-1; Figure 3A,81 µM
same,COX-1 inhibitory activity,purified ovine COX-1; in words,essentially lacks
same,phospho-Ser239 VASP levels (PKG activity),[3],increased
same,caspase activity (apoptosis),HCT116 colon tumor cells [4],increased caspase activity
